Test results reported in patent US5091403A, “Sulfinyl imidazole derivatives and antiulcer agents containing the same” (Nippon Chemiphar Co., Ltd., priority 1989, dated 1992).
Where two headings read alike, the source gives them in different places.

How the values were obtained:
[1] = target: T1, H^+ +K^+ ATPase (Oryctolagus cuniculus, UniProt P27112); test: H^+ +K^+ ATPase Inhibitory Effects (Test 2); format: biochemical, rabbit; conditions: read-out: H^+ + K^+ ATPase inhibitory action IC50
T1 construct: a rabbit gastric mucosa were isolated; from tissue; host or cells: rabbit gastric mucosa; vesicles from a discontinuous Ficoll gradient
Method: (§1) Following the method of Forte et al (J. Applied Physiol., 32, 714.717 (1972)), a rabbit gastric mucosa were isolated. A vesicle containing H^+ +K^+ ATPase was prepared by centrifuging the cells in Ficoll of discontinuous density gradient according to G. Saccomani et al (Biochim. Biophys. Acta, 465. 311-330 (1977)). After the enzyme was incubated at room temperature for 25 min. in 0.5 ml of a solution which contained 5 mM of an imidazole buffer (pH 6.0) and 2 × 10^-4 M of 2-[2-(2-methoxyethylamino)benzylsulfinyl] imidazole (the compound of Example 1; the test compound), the mixture was heated to 37° C. The mixture was then allowed to stand for further 5 min. To the mixture was added 0.5 ml of a solution which contained 4 mM of magnesium chloride, 80 mM of an imidazole buffer (pH 7.4), 20 mM of potassium chloride and 4 mM of ATP. The resulting mixture was reacted at 37° C. for 15 min. and 1 ml of 24 % trichloroacetic acid was then added to terminate the reaction. The inorganic phosphorus liberated was quantitatively determined by the method proposed by Taussky and Shorr (J. Biol. Chem., 202, 675-685 (1953)).
(§2) The above procedure was repeated except for not using potassium chloride to determine […] in the absence of potassium chloride. The desired K^+ -dependent ATPase activity was calculated by subtracting the ATPase activity value determined in the absence of KCl from the ATPase activity value determined in the presence of KCl.
the enzyme was prepared in the same manner described in the above Test 1. After the enzyme was incubated at room temperature for 25 min. in 0.5 ml of a solution which contained 5 mM of an imidazole buffer (pH 6.0 or pH 7.4) and various concentrations of test compound, the mixture was heated to 37° C. The mixture was then allowed to stand for further 5 min. The value of H^+ +K^+ ATPase inhibitory action of each test compound was determined int he same manner described in the above Test 1.

[2] = tested on: secretion of gastric acid; test: Inhibitory action against the secretion of gastric acid (Test II), Heidenhain pouch dogs, histamine, intravenous; format: in vivo, dog (male beagle); conditions: 3 mg/kg, intravenously, one hour after initiation of histamine; 30 min post-drug vs pre-drug
Method: (§3) Heidenhain pouch dogs produced from male beagle dogs were fasted. To the dogs were then administered intra venously histamine hydrochloride (gastric juice secretion inducing agent) continuously at a dose of 160 μg/kg/hr. The gastric juice was collected at an interval of 15 min. to measure the amount of gastric juice and acid output to determine an acid secretion amount (mEq/15 min).
The test compound was intravenously administered to the dogs at one hour after the initiation of histamine ad ministration.
The inhibitory action was determined by comparing the acid secretion amount between pre-drug value (just before drug administration) and post-drug value (30 min. after drug administration).

[3] = tested on: secretion of gastric acid; test: Inhibitory action against the secretion of gastric acid (Test II, other experiment), Heidenhain pouch dogs, histamine, oral; format: in vivo, dog (male beagle); conditions: orally, 2 hours before initiation of histamine, vs vehicle control dog
Method: as §3
At the other experiment, the test compounds mere administrated orally 2 hours before the initiation of histamine administration, and the inhibitory action was determined by comparing the acid secretion amount wit the corresponding amount of a control dog prepared in the same manner except that a vehicle alone was administered.

[4] = Acute toxicity test; format: in vivo, rat (male SD); conditions: orally, observed for 2 days
Excerpt: Male SD rats having a body weight of about 190 g were orally administered with compound of Example 8. The rats were then observed for 2 days.

[5] = target: T1, H^+ +K^+ ATPase; test: H^+ +K^+ ATPase Inhibitory Effects (Test 1); format: biochemical, rabbit; conditions: 2 × 10^-4 M test compound; incubation at pH 6.0, 25 min, room temperature; read-out: value of H^+ +K^+ ATPase inhibitory action
Method: as §1, with “The resulting mixture was reacted at 37° C. for 15 min. and 1 ml of 24 % trichloroacetic acid was then added to terminate the reaction.” left out
as §2

[6] = tested on: secretion of gastric acid; test: Inhibitory action against the secretion of gastric acid (Test I), pylorus-ligated rats; format: in vivo, rat (male Donryu); conditions: intraduodenally, 4 hours, vs vehicle control
Method: Male Donryu rats having a body weight of 200 to 250 g were fasted (while allowing free access to water) for 24 hrs. in accordance with the conventional method [Shay, H. et al, Gastroenterology, 5, 43.61 (1945)]. Under ether anesthesia the pylorus was ligated and 2-[2-(2-methoxyethylamino)benzylsulfinyl] imidazole (the compound of Example 1; the test compound) was administered intraduodenally. Four hours later, each rat was killed and the stomach was removed to collect the gastric juice. The inhibitory action was determined by comparing the acid output which was determined by titration to pH 7.0 with 0.1.N sodium hydroxide by means of an automatic titrator, with the corresponding value of a control rat prepared in the same manner except that a vehicle alone was administered.

T1 sequence (P27112 whole entry): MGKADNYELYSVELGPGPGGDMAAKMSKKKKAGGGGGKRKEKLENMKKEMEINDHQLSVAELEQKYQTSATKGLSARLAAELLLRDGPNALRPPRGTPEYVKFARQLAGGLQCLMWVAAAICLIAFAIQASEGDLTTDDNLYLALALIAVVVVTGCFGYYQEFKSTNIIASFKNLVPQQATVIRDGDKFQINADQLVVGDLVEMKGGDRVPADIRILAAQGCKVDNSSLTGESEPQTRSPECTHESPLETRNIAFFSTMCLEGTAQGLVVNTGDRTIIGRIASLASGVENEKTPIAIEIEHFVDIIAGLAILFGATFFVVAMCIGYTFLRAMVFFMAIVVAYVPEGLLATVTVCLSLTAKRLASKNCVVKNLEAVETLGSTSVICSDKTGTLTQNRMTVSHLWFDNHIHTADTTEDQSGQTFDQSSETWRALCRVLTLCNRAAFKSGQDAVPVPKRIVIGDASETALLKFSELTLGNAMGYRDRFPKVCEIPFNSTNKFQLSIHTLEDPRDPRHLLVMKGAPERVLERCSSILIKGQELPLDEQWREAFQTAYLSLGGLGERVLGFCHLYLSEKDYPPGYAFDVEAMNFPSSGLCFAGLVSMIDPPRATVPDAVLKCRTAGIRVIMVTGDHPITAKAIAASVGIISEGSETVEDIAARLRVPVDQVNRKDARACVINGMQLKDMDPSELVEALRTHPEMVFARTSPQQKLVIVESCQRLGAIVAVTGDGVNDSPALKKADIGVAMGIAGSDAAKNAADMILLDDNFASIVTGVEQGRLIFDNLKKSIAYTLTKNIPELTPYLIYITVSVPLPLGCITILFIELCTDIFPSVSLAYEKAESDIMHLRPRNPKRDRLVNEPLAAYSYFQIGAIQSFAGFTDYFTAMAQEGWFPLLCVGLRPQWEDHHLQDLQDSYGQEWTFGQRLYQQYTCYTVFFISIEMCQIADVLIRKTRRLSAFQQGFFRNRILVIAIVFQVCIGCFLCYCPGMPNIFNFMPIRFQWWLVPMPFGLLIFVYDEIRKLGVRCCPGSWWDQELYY
T1 sequence (P18597 whole entry partner): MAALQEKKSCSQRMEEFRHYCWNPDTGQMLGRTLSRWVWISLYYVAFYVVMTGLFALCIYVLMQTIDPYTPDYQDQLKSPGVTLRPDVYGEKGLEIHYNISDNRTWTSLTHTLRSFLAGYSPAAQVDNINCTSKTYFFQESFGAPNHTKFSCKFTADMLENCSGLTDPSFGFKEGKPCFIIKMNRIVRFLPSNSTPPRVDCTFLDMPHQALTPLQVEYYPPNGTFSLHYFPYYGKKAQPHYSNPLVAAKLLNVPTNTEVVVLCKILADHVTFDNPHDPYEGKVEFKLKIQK

| IC50 ([1]; pH 6.0) | IC50 ([1]; pH 7.4) | inhibition at 200 µM [5] | Structure (SMILES) | Suppressive action (acid secretion amount) [2] | Suppressive action (acid secretion amount) [3] | MLD [4] | inhibitory action (acid output) ([6]; 10 mg/kg) | inhibitory action (acid output) ([6]; 30 mg/kg) |
| --- | --- | --- | --- | --- | --- | --- | --- | --- |
| 46 µM | 190 µM | – | CC(C)OCCNc1ccccc1C[S+]([O-])c1ncc[nH]1 (stereo not shown) [Example 2, 2-[2-(2-isopropoxyethylamino)benzylsulfinyl]imidazole] | 97% | – | – | – | – |
| 4.4 µM | 26 µM | – | COCCNc1cccc(C)c1C[S+]([O-])c1ncc[nH]1 (stereo not shown) [Example 4, 2-[2-(2-methoxyethylamino)-6-methylbenzylsulfinyl]imidazole] | 89% | – | – | – | – |
| 25 µM | > 300 µM | – | COCCNc1ccc(C)cc1C[S+]([O-])c1ncc[nH]1 (stereo not shown) [Example 3, 2-[2-(2-methoxyethylamino)-5-methylbenzylsulfinyl]imidazole] | 85% | 100% | – | – | – |
| 22 µM | 53 µM | – | CCOCCNc1ccccc1C[S+]([O-])c1ncc[nH]1 (stereo not shown) [Example 5, 2-[2-(2-ethoxyethylamino)benzylsulfinyl]imidazole] | 98% | – | – | – | – |
| 43 µM | 180 µM | 73.1% | COCCNc1ccccc1C[S+]([O-])c1ncc[nH]1 (stereo not shown) [Example 1, 2-[2-(2-methoxyethylamino)benzylsulfinyl]imidazole] | 89% | – | – | 75.9% | 94.5% |
| 13 µM | 60 µM | – | COCCCNc1ccccc1C[S+]([O-])c1ncc[nH]1 (stereo not shown) [Example 6, 2-[2-(3-methoxypropylamino)benzylsulfinyl]imidazole] | 92% | – | – | – | – |
| 18 µM | 94 µM | – | CCOCCNc1ccc(C)cc1C[S+]([O-])c1ncc[nH]1 (stereo not shown) [Example 7, 2-[2-(2-ethoxyethylamino)-5-methylbenzylsulfinyl] imidazole] | – | – | – | – | – |

| Structure (SMILES) | IC50 ([1]; pH 6.0) | IC50 ([1]; pH 7.4) | inhibition at 200 µM [5] | Suppressive action (acid secretion amount) [2] | Suppressive action (acid secretion amount) [3] | MLD [4] | inhibitory action (acid output) ([6]; 10 mg/kg) | inhibitory action (acid output) ([6]; 30 mg/kg) |
| --- | --- | --- | --- | --- | --- | --- | --- | --- |
| COCCNc1cc(C)c(OC)c(C)c1C[S+]([O-])c1ncc[nH]1 (stereo not shown) [Example 8, 2-[4,6-dimethyl-5-methoxy-2-(2-methoxyethylamino)benzylsulfinyl]imidazole] | 0.46 µM | 11 µM | – | – | 100% | ≥ 1,000 mg/kg | – | – |
